Reference: US12522602B2, “Derivatives having 2,3-dihydro-1H-indene or 2,3-dihydrobenzofuran moiety or pharmaceutically acceptable salt thereof and pharmaceutical compositions comprising the same” (YUHAN CORPORATION, priority 2019, dated 2026)

test system: GM1 production in Jurkat cells; test: cells; format: cell-based; details: not given

Row | Compound | IC50
1 | COc1cc2c(cc1-c1ccc(CC(C)C)cc1)CC(C)(C)C2NC(=O)O[C@@H]1CN2CCC1CC2 (stereo partly drawn) [Example 315, (S)-quinuclidin-3-yl (5-(4-isobutylphenyl)-6-methoxy-2,2-dimethyl-2,3-dihydro-1H-inden-1-yl)carbamate] | 11.3 nM

same assay, conditions: Homo sapiens, Jurkat, 72 h

Row | Compound | IC50
2 | CCCOc1ccc(-c2ccc3c(c2)CC(CC)(CC)C3NC(=O)O[C@@H]2CN3CCC2CC3)cc1 (stereo partly drawn) [Example 285, (S)-quinuclidin-3-yl (2,2-diethyl-5-(4-propoxyphenyl)-2,3-dihydro-1H-inden-1-yl)carbamate] | 3.7 nM
3 | CCC1(CC)Cc2cc(-c3ccc(OC(C)C)cc3)ccc2C1NC(=O)O[C@@H]1CN2CCC1CC2 (stereo partly drawn) [Example 286, (S)-quinuclidin-3-yl (2,2-diethyl-5-(4-isopropoxyphenyl)-2,3-dihydro-1H-inden-1-yl)carbamate] | 4.1 nM
4 | CCC1(CC)Cc2cc(-c3ccc(CC(C)C)cc3)ccc2C1NC(=O)O[C@@H]1CN2CCC1CC2 (stereo partly drawn) [Example 287, (S)-quinuclidin-3-yl (2,2-diethyl-5-(4-isobutylphenyl)-2,3-dihydro-1H-inden-1-yl)carbamate] | 4.1 nM
5 | CCC1(CC)Cc2cc(-c3cccc(F)c3)ccc2C1NC(=O)O[C@@H]1CN2CCC1CC2 (stereo partly drawn) [Example 288, (S)-quinuclidin-3-yl (2,2-diethyl-5-(3-fluorophenyl)-2,3-dihydro-1H-inden-1-yl)carbamate] | 11.2 nM
6 | CCC1(CC)Cc2cc(-c3cccc(OC)c3)ccc2C1NC(=O)O[C@@H]1CN2CCC1CC2 (stereo partly drawn) [Example 289, (S)-quinuclidin-3-yl (2,2-diethyl-5-(3-methoxyphenyl)-2,3-dihydro-1H-inden-1-yl)carbamate] | 7.4 nM
7 | CCOc1cccc(-c2ccc3c(c2)CC(CC)(CC)C3NC(=O)O[C@@H]2CN3CCC2CC3)c1 (stereo partly drawn) [Example 290, (S)-quinuclidin-3-yl (5-(3-ethoxyphenyl)-2,2-diethyl-2,3-dihydro-1H-inden-1-yl)carbamate] | 12.3 nM
8 | CCC1(CC)Cc2cc(-c3cccc(OC(C)C)c3)ccc2C1NC(=O)O[C@@H]1CN2CCC1CC2 (stereo partly drawn) [Example 291, (S)-quinuclidin-3-yl (2,2-diethyl-5-(3-isopropoxyphenyl)-2,3-dihydro-1H-inden-1-yl)carbamate] | 13.5 nM
9 | CCc1cccc(-c2ccc3c(c2)CC(CC)(CC)C3NC(=O)O[C@@H]2CN3CCC2CC3)c1 (stereo partly drawn) [Example 292, (S)-quinuclidin-3-yl (2,2-diethyl-5-(3-ethylphenyl)-2,3-dihydro-1H-inden-1-yl)carbamate] | 7.8 nM
10 | CCC1(CC)Cc2cc(-c3cccc(C(C)C)c3)ccc2C1NC(=O)O[C@@H]1CN2CCC1CC2 (stereo partly drawn) [Example 293, (S)-quinuclidin-3-yl (2,2-diethyl-5-(3-isopropylphenyl)-2,3-dihydro-1H-inden-1-yl)carbamate] | 8.7 nM
11 | CCC1(CC)Cc2cc(-c3cccc(C(C)(C)C)c3)ccc2C1NC(=O)O[C@@H]1CN2CCC1CC2 (stereo partly drawn) [Example 294, (S)-quinuclidin-3-yl (5-(3-(tert-butyl)phenyl)-2,2-diethyl-2,3-dihydro-1H-inden-1-yl)carbamate] | 10.4 nM
12 | CCC1(CC)Cc2cc(-c3cccc(OC)c3OC)ccc2C1NC(=O)O[C@@H]1CN2CCC1CC2 (stereo partly drawn) [Example 295, (S)-quinuclidin-3-yl (5-(2,3-dimethoxyphenyl)-2,2-diethyl-2,3-dihydro-1H-inden-1-yl)carbamate] | 35 nM
13 | CCC1(CC)Cc2cc(-c3ccc(OC)cc3OC)ccc2C1NC(=O)O[C@@H]1CN2CCC1CC2 (stereo partly drawn) [Example 296, (S)-quinuclidin-3-yl (5-(2,4-dimethoxyphenyl)-2,2-diethyl-2,3-dihydro-1H-inden-1-yl)carbamate] | 15.6 nM
14 | CCC1(CC)Cc2cc(-c3cc(OC)ccc3OC)ccc2C1NC(=O)O[C@@H]1CN2CCC1CC2 (stereo partly drawn) [Example 297, (S)-quinuclidin-3-yl (5-(2,5-dimethoxyphenyl)-2,2-diethyl-2,3-dihydro-1H-inden-1-yl)carbamate] | 3 nM
15 | CCC1(CC)Cc2cc(-c3ccc(OC)c(OC)c3)ccc2C1NC(=O)O[C@@H]1CN2CCC1CC2 (stereo partly drawn) [Example 298, (S)-quinuclidin-3-yl (5-(3,4-dimethoxyphenyl)-2,2-diethyl-2,3-dihydro-1H-inden-1-yl)carbamate] | 63.2 nM
16 | CCC1(CC)Cc2cc(-c3cc(OC)cc(OC)c3)ccc2C1NC(=O)O[C@@H]1CN2CCC1CC2 (stereo partly drawn) [Example 299, (S)-quinuclidin-3-yl (5-(3,5-dimethoxyphenyl)-2,2-diethyl-2,3-dihydro-1H-inden-1-yl)carbamate] | 25.3 nM
17 | CCC1(CC)Cc2cc(-c3c(OC)cccc3OC)ccc2C1NC(=O)O[C@@H]1CN2CCC1CC2 (stereo partly drawn) [Example 300, (S)-quinuclidin-3-yl (5-(2,6-dimethoxyphenyl)-2,2-diethyl-2,3-dihydro-1H-inden-1-yl)carbamate] | 23 nM
18 | CCC1(CC)Cc2cc(-c3cccc(C(F)F)c3)ccc2C1NC(=O)O[C@@H]1CN2CCC1CC2 (stereo partly drawn) [Example 301, (S)-quinuclidin-3-yl (5-(3-(difluoromethyl)phenyl)-2,2-diethyl-2,3-dihydro-1H-inden-1-yl)carbamate] | 9.6 nM

Row | Compound | IC50
19 | CCC1(CC)Cc2cc(-c3cccc(N(C)C)c3)ccc2C1NC(=O)O[C@@H]1CN2CCC1CC2 (stereo partly drawn) [Example 302, (S)-quinuclidin-3-yl (5-(3-(dimethylamino)phenyl)-2,2-diethyl-2,3-dihydro-1H-inden-1-yl)carbamate] | 4 nM
20 | CCOc1c(C)cc(-c2ccc3c(c2)CC(CC)(CC)C3NC(=O)O[C@@H]2CN3CCC2CC3)cc1C (stereo partly drawn) [Example 303, (S)-quinuclidin-3-yl (5-(4-ethoxy-3,5-dimethylphenyl)-2,2-diethyl-2,3-dihydro-1H-inden-1-yl)carbamate] | 27.2 nM
21 | CCCCOc1c(C)cc(-c2ccc3c(c2)CC(CC)(CC)C3NC(=O)O[C@@H]2CN3CCC2CC3)cc1C (stereo partly drawn) [Example 305, (S)-quinuclidin-3-yl (5-(4-butoxy-3,5-dimethylphenyl)-2,2-diethyl-2,3-dihydro-1H-inden-1-yl)carbamate] | 9.8 nM
22 | CCC1(CC)Cc2cc(-c3ccsc3)ccc2C1NC(=O)O[C@@H]1CN2CCC1CC2 (stereo partly drawn) [Example 306, (S)-quinuclidin-3-yl (2,2-diethyl-5-(thiophen-3-yl)-2,3-dihydro-1H-inden-1-yl)carbamate] | 27.5 nM
23 | CCC1(CC)Cc2cc(-c3ccoc3)ccc2C1NC(=O)O[C@@H]1CN2CCC1CC2 (stereo partly drawn) [Example 307, (S)-quinuclidin-3-yl (2,2-diethyl-5-(furan-3-yl)-2,3-dihydro-1H-inden-1-yl)carbamate] | 30.2 nM
24 | CCC1(CC)Cc2cc(-c3ccc(OCC4CC4)nc3)ccc2C1NC(=O)O[C@@H]1CN2CCC1CC2 (stereo partly drawn) [Example 308, (S)-quinuclidin-3-yl (5-(6-(cyclopropylmethoxy)pyridin-3-yl)-2,2-diethyl-2,3-dihydro-1H-inden-1-yl)carbamate] | 5.5 nM
25 | CCC1(CC)Cc2cc(-c3ccc4c(c3)OC(F)(F)O4)ccc2C1NC(=O)O[C@@H]1CN2CCC1CC2 (stereo partly drawn) [Example 309, (S)-quinuclidin-3-yl (5-(2,2-difluorobenzo[d][1,3]dioxol-5-yl)-2,2-diethyl-2,3-dihydro-1H-inden-1-yl)carbamate] | 11.2 nM
26 | CCC1(CC)Cc2cc(-c3ccc(OC)cc3F)ccc2C1NC(=O)O[C@@H]1CN2CCC1CC2 (stereo partly drawn) [Example 310, (S)-quinuclidin-3-yl (2,2-diethyl-5-(2-fluoro-4-methoxyphenyl)-2,3-dihydro-1H-inden-1-yl)carbamate] | 16.3 nM
27 | CCC1(CC)Cc2cc(-c3ccc(OC(C)C)c(Cl)c3)ccc2C1NC(=O)O[C@@H]1CN2CCC1CC2 (stereo partly drawn) [Example 311, (S)-quinuclidin-3-yl (5-(3-chloro-4-isopropoxyphenyl)-2,2-diethyl-2,3-dihydro-1H-inden-1-yl)carbamate] | 27 nM
28 | CCc1ccc(-c2cc3c(cc2OC)C(NC(=O)O[C@@H]2CN4CCC2CC4)C(C)(C)C3)cc1 (stereo partly drawn) [Example 312, (S)-quinuclidin-3-yl (5-(4-ethylphenyl)-6-methoxy-2,2-dimethyl-2,3-dihydro-1H-inden-1-yl)carbamate] | 13.1 nM
29 | CCCc1ccc(-c2cc3c(cc2OC)C(NC(=O)O[C@@H]2CN4CCC2CC4)C(C)(C)C3)cc1 (stereo partly drawn) [Example 313, (S)-quinuclidin-3-yl (6-methoxy-2,2-dimethyl-5-(4-propylphenyl)-2,3-dihydro-1H-inden-1-yl)carbamate] | 7.3 nM
30 | COc1cc2c(cc1-c1ccc(C(C)C)cc1)CC(C)(C)C2NC(=O)O[C@@H]1CN2CCC1CC2 (stereo partly drawn) [Example 314, (S)-quinuclidin-3-yl (5-(4-isopropylphenyl)-6-methoxy-2,2-dimethyl-2,3-dihydro-1H-inden-1-yl)carbamate] | 7.7 nM
31 | COc1cc2c(cc1-c1ccc(C(C)(C)C)cc1)CC(C)(C)C2NC(=O)O[C@@H]1CN2CCC1CC2 (stereo partly drawn) [Example 316, (S)-quinuclidin-3-yl (5-(4-(tert-butyl)phenyl)-6-methoxy-2,2-dimethyl-2,3-dihydro-1H-inden-1-yl)carbamate] | 13.3 nM
32 | COc1cc2c(cc1-c1ccc(C3CC3)cc1)CC(C)(C)C2NC(=O)O[C@@H]1CN2CCC1CC2 (stereo partly drawn) [Example 317, (S)-quinuclidin-3-yl (5-(4-cyclopropylphenyl)-6-methoxy-2,2-dimethyl-2,3-dihydro-1H-inden-1-yl)carbamate] | 10.3 nM
33 | CCOc1ccc(-c2cc3c(cc2OC)C(NC(=O)O[C@@H]2CN4CCC2CC4)C(C)(C)C3)cc1 (stereo partly drawn) [Example 318, (S)-quinuclidin-3-yl (5-(4-ethoxyphenyl)-6-methoxy-2,2-dimethyl-2,3-dihydro-1H-inden-1-yl)carbamate] | 20 nM
34 | CCCOc1ccc(-c2cc3c(cc2OC)C(NC(=O)O[C@@H]2CN4CCC2CC4)C(C)(C)C3)cc1 (stereo partly drawn) [Example 319, (S)-quinuclidin-3-yl (6-methoxy-2,2-dimethyl-5-(4-propoxyphenyl)-2,3-dihydro-1H-inden-1-yl)carbamate] | 7.7 nM
35 | COc1cc2c(cc1-c1ccc(OC(C)C)cc1)CC(C)(C)C2NC(=O)O[C@@H]1CN2CCC1CC2 (stereo partly drawn) [Example 320, (S)-quinuclidin-3-yl (5-(4-isopropoxyphenyl)-6-methoxy-2,2-dimethyl-2,3-dihydro-1H-inden-1-yl)carbamate] | 8.5 nM

same assay, conditions: read-out: IC50

Row | Compound | IC50
36 | CCCOc1c(C)cc(-c2ccc3c(c2)CC(CC)(CC)C3NC(=O)O[C@@H]2CN3CCC2CC3)cc1C (stereo partly drawn) [Example 304, (S)-quinuclidin-3-yl (5-(3,5-dimethyl-4-propoxyphenyl)-2,2-diethyl-2,3-dihydro-1H-inden-1-yl)carbamate] | 23.5 nM
